# From article PMC8406298, “Discovery of Fungus-Specific Targets and Inhibitors Using Chemical Phenotyping of Pathogenic Spore Germination” (mBio, 2021)
# Tests used:
# [1] = tested on: Cryptococcus yeast (CHY3833 and CHY3836); test: Yeast replication secondary screen (OD600); assay type: cell-based, Cryptococcus neoformans serotype D (deneoformans); conditions: 10 μM, 12 h at 30°C
# Experimental: (ii) Yeast replication. CHY3833 and CHY3836 were each grown in YPD liquid overnight at 30°C to saturation and then resuspended in 0.5× YPD at an OD600 of 0.005. Strains were aliquoted into 384-well plates with inhibitors and grown for 12 h at 30°C at […] before OD600 readings were taken. Compounds that caused a >10% decrease in growth were considered yeast growth inhibitors.
# [2] = tested on: normal human dermal fibroblasts (NHDF) cells; test: Fibroblast cytotoxicity (CellTiter-Glo); assay type: cell-based; conditions: 10 µM
# Summary of the method: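 Normal human dermal fibroblasts, 1 × 10^3 per well, exposed to compounds at 10 μM for 72 h at 37°C. Viability read as ATP-dependent CellTiter-Glo luminescence. Dose-response runs titrated compounds from 80 μM to 0.5 μM in duplicate.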
SMILES,Yeast Inhibition: % Inhibition [1] [%],Cytotoxicity: Relative Cell Viability (% of Negative Control) [2]
COc1ccc(-c2noc(CSc3nc4ccsc4c(=O)n3C)n2)cc1 [compound 27373469],33.0,109.3 % of Negative Control
CN(C)CCN(C(=O)c1c[nH]c2ccccc12)c1nc2ccc(OC(F)(F)F)cc2s1.Cl [compound 71782913],99.5,66.6 % of Negative Control
CC1Cc2ccccc2N1C(=O)CCn1c(=O)sc2ccccc21 (stereo not drawn) [compound 3163780],-1.3,59.5 % of Negative Control
O=C(NCCc1nc2c(c(C(F)(F)F)n1)CCCC2)c1ccc(F)cc1Cl [compound 71797126],20.3,106.4 % of Negative Control
O=C(c1cc2ccccc2s1)N1CCC(c2ccsc2)CC1 [compound 91624614],-0.5,96.6 % of Negative Control
Cc1cc(-c2nnc(NC(=O)C3Oc4ccccc4OC3C)o2)n(C)n1 (stereo not drawn) [compound 44070699],-15.7,97.2 % of Negative Control
COc1cc(NS(=O)(=O)c2cccc(C(F)(F)F)c2)ncn1 [compound 71795763],-14.5,90.4 % of Negative Control
Cc1ccc(C)c(N2C(=O)C=CC2=O)c1 [compound 709153],101.9,3.3 % of Negative Control
Cc1cc(NC(=O)c2cccc(Oc3ccccc3)c2)on1 [compound 25813521],19.4,105.8 % of Negative Control
Cc1cccc(CC(=O)Nc2cc(C)ns2)c1 [compound 49722107],32.6,98.5 % of Negative Control
Cc1ccc(CN2C(=O)C=CC2=O)cc1 [compound 302279],101.5,3.1 % of Negative Control
O=C1NC(=S)S/C1=C\c1ccccc1F [compound 1204290],71.4,92.9 % of Negative Control
O=C(Cc1cccc2ccccc12)N1CCC(c2ccsc2)CC1 [compound 71786990],8.3,94.3 % of Negative Control
Cc1cc(C(=O)NCCc2nc3c(c(C(F)(F)F)n2)COCC3)c(C)o1 [compound 91629266],31.5,103.1 % of Negative Control
Cc1ccc(Nc2cc(Cl)nc(N)n2)cc1Cl [compound 243059],98.9,46.1 % of Negative Control
C[n+]1sc(Nc2ccccc2)nc1-c1ccccc1 [compound 803194],98.4,16.5 % of Negative Control
S=C(NCc1ccco1)SCc1cn2ccccc2n1 [compound 3377203],66.6,86.3 % of Negative Control

SMILES,Yeast Inhibition: % Inhibition [1] [%],Cytotoxicity: Relative Cell Viability (% of Negative Control) [2]
CCCc1cc(=O)[nH]c(-n2nc(C)cc2C)n1 [compound 44116743],96.0,64.3 % of Negative Control
O=C(Cc1ccc(F)cc1)N1CCN(c2nc(-c3ccsc3)cs2)CC1 [compound 71811049],4.0,99.2 % of Negative Control
C=C(C)Cn1c(C2CC(=O)N(c3ccccc3F)C2)nc2ccccc21 (stereo not drawn) [compound 4754109],6.6,95.9 % of Negative Control
Cc1ccc(N2C(=O)C=CC2=O)c([N+](=O)[O-])c1 [compound 2834581],101.2,4.3 % of Negative Control
CCCC(CCC)C(=O)N1CCN(c2ccc(-c3cccnc3)nn2)CC1 [compound 25283686],2.8,103.7 % of Negative Control
CCC(OCC(O)CN1CCC(Cc2ccccc2)CC1)c1ccccc1 (stereo not drawn) [compound 4471873],82.2,78.8 % of Negative Control
O=C(C1CCC1)N1CCCCC(c2ccc(Cl)cc2)C1 (stereo not drawn) [compound 76150259],-2.1,108.6 % of Negative Control
CCOC(=O)c1ccc(N2C(=O)CC(SCC(=O)Nc3ccc(S(N)(=O)=O)cc3)C2=O)cc1 (stereo not drawn) [compound 16187117],83.7,118.0 % of Negative Control
Cc1cc(C(=O)NCCC(O)c2cccc3ccccc23)c(C)o1 (stereo not drawn) [compound 71787916],28.8,101.1 % of Negative Control
COC(=O)c1sc(S(=O)(=O)Nc2cccc(C(F)(F)F)c2)c(C(=O)OC)c1C [compound 1190482],2.5,90.9 % of Negative Control
O=C(Nc1nc2c(Br)cccc2s1)C1CC1 [compound 7202929],16.5,66.1 % of Negative Control
O=C(NC1CCN(c2nccs2)C1)c1nc2ccccc2s1 (stereo not drawn) [compound 76149097],10.4,94.5 % of Negative Control
Cc1nc(NCc2ccccc2)c2ccsc2n1 [compound 2238994],84.9,75.7 % of Negative Control
CCCCCCCNS(=O)(=O)c1ccc(OCC)cc1 [compound 4102712],46.8,43.9 % of Negative Control
Cc1cc(C)n(-c2nc(CCNC(=O)c3cc(C)oc3C)cs2)n1 [compound 71802096],42.7,103.6 % of Negative Control
c1ccc(CNc2ncnc3scc(-c4cccs4)c23)nc1 [compound 944383],53.4,92.9 % of Negative Control
